Measurements as given in ChEMBL document CHEMBL3259563, “The discovery of potent and selective non-steroidal glucocorticoid receptor modulators, suitable for inhalation” (Bioorg Med Chem Lett, 2014).

What was measured:
[1] = molecular target: T1, Progesterone receptor (Homo sapiens, UniProt P06401); assay: Binding affinity to progesterone receptor (unknown origin)
T1 sequence (P06401 whole entry): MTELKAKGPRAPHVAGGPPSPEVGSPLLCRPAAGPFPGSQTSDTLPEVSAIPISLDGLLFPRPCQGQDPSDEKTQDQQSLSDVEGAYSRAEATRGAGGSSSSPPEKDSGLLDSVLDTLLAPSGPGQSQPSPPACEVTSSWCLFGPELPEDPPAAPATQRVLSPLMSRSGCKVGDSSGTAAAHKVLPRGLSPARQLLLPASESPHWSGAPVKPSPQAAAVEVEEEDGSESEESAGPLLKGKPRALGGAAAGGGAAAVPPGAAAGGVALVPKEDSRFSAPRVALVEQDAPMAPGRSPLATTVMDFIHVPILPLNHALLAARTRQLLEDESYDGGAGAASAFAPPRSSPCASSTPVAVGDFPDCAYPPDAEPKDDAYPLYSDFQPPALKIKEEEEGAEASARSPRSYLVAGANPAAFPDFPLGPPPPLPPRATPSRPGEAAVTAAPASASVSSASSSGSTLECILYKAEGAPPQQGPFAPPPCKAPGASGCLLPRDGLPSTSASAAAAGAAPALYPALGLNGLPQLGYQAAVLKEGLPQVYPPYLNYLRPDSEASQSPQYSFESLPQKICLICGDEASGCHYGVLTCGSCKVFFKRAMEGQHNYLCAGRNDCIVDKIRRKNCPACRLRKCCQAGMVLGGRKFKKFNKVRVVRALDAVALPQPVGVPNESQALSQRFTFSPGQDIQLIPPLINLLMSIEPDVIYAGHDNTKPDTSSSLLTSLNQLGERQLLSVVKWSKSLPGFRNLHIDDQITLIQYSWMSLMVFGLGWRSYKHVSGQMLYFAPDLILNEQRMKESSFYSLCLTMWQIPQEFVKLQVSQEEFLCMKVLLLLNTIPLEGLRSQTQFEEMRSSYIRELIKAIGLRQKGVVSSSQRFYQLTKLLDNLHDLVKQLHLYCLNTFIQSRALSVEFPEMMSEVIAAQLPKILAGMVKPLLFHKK

[2] = molecular target: Cytochrome P450 3A4 (Homo sapiens, UniProt P08684); assay: Inhibition of CYP3A4 (unknown origin); format: ADME
[3] = molecular target: T2, Cytochrome P450 1A2 (Homo sapiens, UniProt P05177); assay: Inhibition of CYP1A2 (unknown origin); format: ADME
T2 sequence (P05177 whole entry): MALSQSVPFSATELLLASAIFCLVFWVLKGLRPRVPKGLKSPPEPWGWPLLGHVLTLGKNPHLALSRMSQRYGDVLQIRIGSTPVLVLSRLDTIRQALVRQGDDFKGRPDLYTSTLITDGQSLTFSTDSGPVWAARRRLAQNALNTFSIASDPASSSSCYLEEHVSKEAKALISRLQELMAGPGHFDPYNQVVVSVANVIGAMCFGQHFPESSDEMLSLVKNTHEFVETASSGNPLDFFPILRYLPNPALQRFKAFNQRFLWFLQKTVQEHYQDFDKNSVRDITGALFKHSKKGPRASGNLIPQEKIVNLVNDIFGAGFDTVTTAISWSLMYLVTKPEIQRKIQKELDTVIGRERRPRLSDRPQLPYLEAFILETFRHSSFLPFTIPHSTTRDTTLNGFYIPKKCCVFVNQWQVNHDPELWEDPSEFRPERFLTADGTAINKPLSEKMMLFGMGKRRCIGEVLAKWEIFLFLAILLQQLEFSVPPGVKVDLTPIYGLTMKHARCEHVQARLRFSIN

[4] = molecular target: T3, Androgen receptor (Homo sapiens, UniProt P10275); assay: Binding affinity to androgen receptor (unknown origin)
T3 sequence (P10275 whole entry): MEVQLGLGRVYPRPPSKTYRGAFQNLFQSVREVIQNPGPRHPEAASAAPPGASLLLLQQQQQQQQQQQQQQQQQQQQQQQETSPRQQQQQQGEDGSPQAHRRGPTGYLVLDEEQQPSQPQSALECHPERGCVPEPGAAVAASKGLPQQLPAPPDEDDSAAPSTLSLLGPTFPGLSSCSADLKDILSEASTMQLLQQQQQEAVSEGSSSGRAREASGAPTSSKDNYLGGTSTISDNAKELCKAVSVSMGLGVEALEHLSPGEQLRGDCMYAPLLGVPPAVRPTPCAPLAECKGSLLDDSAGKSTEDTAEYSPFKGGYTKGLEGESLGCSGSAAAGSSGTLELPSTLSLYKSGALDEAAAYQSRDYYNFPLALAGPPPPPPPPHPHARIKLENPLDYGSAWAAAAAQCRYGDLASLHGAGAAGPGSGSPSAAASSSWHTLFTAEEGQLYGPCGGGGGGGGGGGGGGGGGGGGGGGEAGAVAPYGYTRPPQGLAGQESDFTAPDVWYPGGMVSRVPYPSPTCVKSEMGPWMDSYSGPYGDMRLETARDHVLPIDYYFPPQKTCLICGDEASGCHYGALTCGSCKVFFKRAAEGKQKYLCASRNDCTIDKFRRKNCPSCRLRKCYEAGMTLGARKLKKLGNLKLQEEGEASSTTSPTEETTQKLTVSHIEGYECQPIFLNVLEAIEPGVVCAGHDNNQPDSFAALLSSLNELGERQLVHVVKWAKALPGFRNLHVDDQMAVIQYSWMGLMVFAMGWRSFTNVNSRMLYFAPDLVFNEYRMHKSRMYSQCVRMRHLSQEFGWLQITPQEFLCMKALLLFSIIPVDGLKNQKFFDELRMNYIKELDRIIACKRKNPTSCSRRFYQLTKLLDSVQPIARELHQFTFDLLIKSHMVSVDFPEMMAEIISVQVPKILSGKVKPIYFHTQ

Sequence of Cytochrome P450 3A4 (P08684 whole entry): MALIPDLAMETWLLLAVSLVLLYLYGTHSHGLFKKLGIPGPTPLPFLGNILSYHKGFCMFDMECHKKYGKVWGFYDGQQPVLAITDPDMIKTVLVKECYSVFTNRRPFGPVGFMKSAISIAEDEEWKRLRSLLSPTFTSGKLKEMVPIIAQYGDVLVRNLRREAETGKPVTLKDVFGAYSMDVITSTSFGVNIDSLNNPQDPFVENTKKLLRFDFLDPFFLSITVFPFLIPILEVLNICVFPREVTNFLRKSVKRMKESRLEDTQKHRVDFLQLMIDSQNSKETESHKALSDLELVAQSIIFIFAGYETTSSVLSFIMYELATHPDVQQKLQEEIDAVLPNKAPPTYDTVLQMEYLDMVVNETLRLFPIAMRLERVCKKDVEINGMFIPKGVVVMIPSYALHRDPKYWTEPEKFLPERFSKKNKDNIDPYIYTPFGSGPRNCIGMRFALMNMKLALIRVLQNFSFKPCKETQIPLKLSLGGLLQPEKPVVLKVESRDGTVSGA

Work on `Cc1nn(C2CCCC2)c(C)c1S(=O)(=O)N[C@@H](C)CNc1cccc2c1cnn2-c1ccc(F)nc1` yielded an IC50 [1] of 4.5 µM, an IC50 [2] of 22 µM and an IC50 [3] greater than 20 µM. It also gave an IC50 [4] greater than 1 µM.
